Values of other authors, collected in patent publication US9637731B2, “Heavy metal stabilization and methane inhibition during induced or naturally occurring reducing conditions in contaminated media” (Innovative Environmental Technologies, Inc., priority 2013, dated 2017).

How the values were obtained:
[1] = system: F420-dependent NADP oxidoreductase enzyme; conditions: 3D protein model
[2] = system: pure methanogenic bacteria

Row | Structure (SMILES) | affinity for the model protein compared to the natural ligand F420 [1] | effect on cellulolytic bacteria (cellulolytic bacteria) | methane formation (Methanobrevibacter) | concentration that completely inhibited growth (Methanobrevibacter; per ml of culture medium) | IC50 (Methanobrevibacter; per ml of culture medium, read-out: concentration resulting in 50% inhibition of growth) | growth and activity of pure methanogenic bacteria [2] | populations of the non-methanogens (non-methanogens)
1 | CC[C@H](C)C(=O)O[C@H]1CCC=C2C=C[C@H](C)[C@H](CC[C@@H]3C[C@@H](O)CC(=O)O3)[C@H]21 [compactin] | more affinity |  |  |  |  |  | 
2 | CC[C@H](C)C(=O)O[C@H]1C[C@@H](C)C=C2C=C[C@H](C)[C@H](CC[C@@H]3C[C@@H](O)CC(=O)O3)[C@H]21 [lovastatin, Lovastatin] | more affinity | without any negative effect | significantly inhibited | 10 nmol/mL | 4 µM | significantly reduced | not affected
